Reference: patent US20250197375A1, “PYRIMIDINES AND METHODS OF THEIR USE” (Kineta, Inc., priority 2021, published 2025)

These compounds were tested against PIKfyve (Homo sapiens (Human), UniProt Q9Y2I7) (assay: PIKfyve EEA1 Assay (endosomal vesicle enlargement, high content imaging in U2OS cells)). Details: 3 hours of treatment, activity relative to maximal APY0201 activity.
Type: cell-based
Method: PIKfyve EEA1 Assay. Genetic or pharmacological disruption of PIKfyve activity results in enlargement of endosomal vesicles. This enlargement was utilized as a surrogate readout of PIKFyve inhibition for routine triage of PIKfyve inhibitors. U2OS cells grown in 96-well assay plates were treated with compound diluted in DMEM media containing 10% fetal bovine serum. After 3 hours of treatment, cells were fixed with paraformaldehyde, permeabilized with 0.2% Triton-X in phosphate buffered saline and stained against EEA1. During the secondary antibody staining, cells were also stained with CellMask™ Deep Red and Hoechst to detect cytoplasms and nuclei respectively. Endosomal structures were visualized using a high content imager at 40× magnification. Images were analyzed using a linear classifier algorithm integrating EEA1 spot size, intensity and texture trained on images of cells treated with the potent reference compound APY0201. Compound activity was calculated by subtracting the DMSO signal and calculating percentage activity relative to maximal APY0201 activity. IC50 values were then calculated from concentration versus percent inhibition data by logistic regression.

Sequence of PIKfyve (Q9Y2I7 whole entry): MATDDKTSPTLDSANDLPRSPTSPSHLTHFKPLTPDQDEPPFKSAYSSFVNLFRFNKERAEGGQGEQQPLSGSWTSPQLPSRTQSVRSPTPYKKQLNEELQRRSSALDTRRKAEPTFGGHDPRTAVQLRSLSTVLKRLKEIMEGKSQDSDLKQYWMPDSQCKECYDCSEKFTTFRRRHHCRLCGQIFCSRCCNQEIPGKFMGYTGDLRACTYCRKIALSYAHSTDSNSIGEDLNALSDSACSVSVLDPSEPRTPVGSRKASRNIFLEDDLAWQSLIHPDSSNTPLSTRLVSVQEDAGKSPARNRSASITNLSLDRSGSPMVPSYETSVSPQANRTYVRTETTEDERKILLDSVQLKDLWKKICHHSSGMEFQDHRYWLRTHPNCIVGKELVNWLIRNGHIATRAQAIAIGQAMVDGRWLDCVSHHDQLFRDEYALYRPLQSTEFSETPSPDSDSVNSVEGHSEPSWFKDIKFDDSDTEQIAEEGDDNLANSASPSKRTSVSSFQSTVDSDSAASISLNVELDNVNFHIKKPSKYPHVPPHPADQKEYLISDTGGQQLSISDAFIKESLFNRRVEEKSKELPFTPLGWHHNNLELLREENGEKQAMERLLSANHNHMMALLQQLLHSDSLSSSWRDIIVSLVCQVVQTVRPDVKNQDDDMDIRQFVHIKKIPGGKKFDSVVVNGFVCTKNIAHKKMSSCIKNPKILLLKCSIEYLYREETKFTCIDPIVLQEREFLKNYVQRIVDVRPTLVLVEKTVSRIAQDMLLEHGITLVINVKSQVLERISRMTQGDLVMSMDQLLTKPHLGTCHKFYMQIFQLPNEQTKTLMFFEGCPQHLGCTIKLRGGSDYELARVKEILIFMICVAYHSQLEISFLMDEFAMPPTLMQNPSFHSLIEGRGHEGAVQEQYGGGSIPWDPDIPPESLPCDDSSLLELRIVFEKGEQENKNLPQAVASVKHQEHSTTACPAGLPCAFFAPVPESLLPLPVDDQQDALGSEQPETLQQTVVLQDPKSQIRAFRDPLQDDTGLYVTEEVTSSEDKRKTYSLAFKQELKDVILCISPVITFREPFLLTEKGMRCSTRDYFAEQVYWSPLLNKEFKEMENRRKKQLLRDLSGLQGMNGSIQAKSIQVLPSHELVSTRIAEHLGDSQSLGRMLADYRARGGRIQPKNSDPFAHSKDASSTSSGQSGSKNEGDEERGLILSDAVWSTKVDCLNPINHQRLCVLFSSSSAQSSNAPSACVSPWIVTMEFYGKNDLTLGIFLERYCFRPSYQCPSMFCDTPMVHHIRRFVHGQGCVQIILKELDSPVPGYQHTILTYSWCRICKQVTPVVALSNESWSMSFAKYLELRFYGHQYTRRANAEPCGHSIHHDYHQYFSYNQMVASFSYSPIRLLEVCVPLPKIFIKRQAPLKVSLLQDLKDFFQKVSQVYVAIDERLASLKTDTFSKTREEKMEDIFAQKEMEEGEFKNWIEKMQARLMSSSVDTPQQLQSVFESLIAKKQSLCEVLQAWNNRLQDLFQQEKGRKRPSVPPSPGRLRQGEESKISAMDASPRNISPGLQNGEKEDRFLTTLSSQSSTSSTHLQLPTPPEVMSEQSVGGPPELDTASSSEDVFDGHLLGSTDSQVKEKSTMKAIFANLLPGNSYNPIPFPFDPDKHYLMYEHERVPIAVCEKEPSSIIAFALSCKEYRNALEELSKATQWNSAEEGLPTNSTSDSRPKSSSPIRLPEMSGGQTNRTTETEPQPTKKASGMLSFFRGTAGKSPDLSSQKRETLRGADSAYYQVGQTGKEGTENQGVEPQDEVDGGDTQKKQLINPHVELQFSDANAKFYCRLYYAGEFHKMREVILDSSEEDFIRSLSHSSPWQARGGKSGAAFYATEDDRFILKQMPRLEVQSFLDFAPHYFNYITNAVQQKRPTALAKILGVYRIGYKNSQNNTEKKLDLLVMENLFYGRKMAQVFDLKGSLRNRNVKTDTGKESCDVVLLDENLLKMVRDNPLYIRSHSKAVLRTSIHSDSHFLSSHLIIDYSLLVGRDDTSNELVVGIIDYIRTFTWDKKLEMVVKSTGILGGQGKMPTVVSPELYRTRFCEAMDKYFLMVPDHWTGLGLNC

Compared with `COc1c(NCc2cccnc2)nc(-c2cccc(-c3ccn(C)n3)c2)nc1-c1ccncc1` [Compound 63, 5-methoxy-2-(3-(1-methyl-1H-pyrazol-3-yl)phenyl)-N-(pyridin-3-ylmethyl)-6-(pyridin-4-yl)pyrimidin-4-amine], `COc1c(Nc2ccncc2)nc(-c2ccncc2)nc1-c1cccc(-c2ccn(C)n2)c1` [Compound 53, 5-methoxy-6-(3-(1-methyl-1H-pyrazol-3-yl)phenyl)-N, 2-di(pyridin-4-yl)pyrimidin-4-amine] is lower in IC50: 1 to 10 µM for the first, 0.01 to 0.1 µM for the second.

`OCc1c(Nc2cccnc2)nc(N2CCOCC2)nc1-c1cccc(-n2cccn2)c1` [Compound 70, [2-morpholino-4-(3-pyrazol-1-ylphenyl)-6-(3-pyridylamino)pyrimidin-6-yl]methanol] and `COc1c(Nc2cccnc2)nc(N2CCOCC2)nc1-c1cccc(C#N)c1` [Compound 23, 3-(5-methoxy-2-morpholino-6-(pyridin-3-ylamino)pyrimidin-4-yl)benzonitrile] fall in the same range of IC50: 1 to 10 µM for the first, 1 to 10 µM for the second.

`COc1c(OCCc2ccccn2)nc(-c2cccc(-c3ccn(C)n3)c2)nc1N1CCOCC1` [Compound 4] and `COc1c(-c2cccc(-c3ccn(C)n3)c2)nc(OCCc2ccccn2)nc1N1CCOCC1` [Compound 5, 4-(5-methoxy-6-(3-(1-methyl-H-pyrazol-3-yl)phenyl)-2-(2-(pyridin-2-yl)ethoxy)pyrimidin-4-yl)morpholine] fall in the same range of IC50: 1 to 10 µM for the first, 1 to 10 µM for the second.

First: Cn1ccc(-c2ccc3c(c2)c2nc(N4CCOCC4)nc(Nc4ccncc4)c2c(=O)n3C)n1 [Compound 71, 6-methyl-9-(1-methylpyrazol-3-yl)-2-morpholino-4-(4-pyridylamino)pyrimido[5,4-c]quinolin-one]
Second: COc1c(Nc2ccncc2)nc(N2CCOCC2)nc1-c1cccc(-c2ccn(C)n2)c1 [Compound 3, 5-methoxy-6-(3-(1-methyl-1H-pyrazol-3-yl)phenyl)-2-morpholino-N-(pyridin-4-yl)pyrimidin-4-amine]
The IC50 of the first is higher: 0.1 to 1 µM for the first, 0.01 to 0.1 µM for the second. The second is the more potent here.

First: COc1c(Nc2cccnc2)nc(N2CCOCC2)nc1-c1ccnc(-c2ccn(C)n2)c1 [Compound 25, 5-methoxy-6-(2-(1-methyl-1H-pyrazol-3-yl)pyridin-4-yl)-2-morpholino-N-(pyridin-3-yl)pyrimidin-4-amine]
Second: COc1c(-c2cccc(-c3ccn(C)n3)c2)nc(N2CCOCC2)nc1N1CCN(C)C(=O)C1 [Compound 60, 4-(5-methoxy-6-(3-(1-methyl-1H-pyrazol-3-yl)phenyl)-2-morpholinopyrimidin-4-yl)-1-methylpiperazin-2-one]
The IC50 of the first is lower: 0.1 to 1 µM for the first, 1 to 10 µM for the second.
